Laboratory results: the supplement of paper PMC10307832

Assays:
Assay in all cases: relative viability (nuclei count vs DMSO), 5 days (fraction); higher = more cells survive
NCI-H1915 = system: NCI-H1915
Outline: (§1)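 Relative viability was taken as the ratio of nuclei in treated wells to nuclei in vehicle wells. Lung cancer cell lines in 1536-well plates received compounds by pin tool one day after seeding, either one drug alone or a fixed anchor-drug dose plus five library-drug doses (not always all listed) in √10 steps. Nuclei were counted on 4× images after 5 days of treatment, and values are medians of duplicate plates.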

NCI-H23 = system: NCI-H23
Outline: as §1

EKVX = system: EKVX
Outline: as §1

H3255 = system: H3255
Outline: as §1

LU99A = system: LU99A
Outline: as §1

EMC-BAC-2 = system: EMC-BAC-2
Outline: as §1

NCI-H441 = system: NCI-H441
Outline: as §1

NCI-H1793 = system: NCI-H1793
Outline: as §1

ChaGo-K-1 = system: ChaGo-K-1
Outline: as §1

LCLC-97TM1 = system: LCLC-97TM1
Outline: as §1

HCC-827 = system: HCC-827
Outline: as §1

NCI-H322M = system: NCI-H322M
Outline: as §1

LC-2-ad = system: LC-2-ad
Outline: as §1

NCI-H1944 = system: NCI-H1944
Outline: as §1

NCI-H460 = system: NCI-H460
Outline: as §1

HARA = system: HARA
Outline: as §1

NCI-H1437 = system: NCI-H1437
Outline: as §1

HCC-15 = system: HCC-15
Outline: as §1

PC-3 [JPC-3] = system: PC-3 [JPC-3]
Outline: as §1

NCI-H1792 = system: NCI-H1792
Outline: as §1

NCI-H2126 = system: NCI-H2126
Outline: as §1

SMILES: O=c1[nH]c2ccccc2n1C1CCN(CCCC(c2ccc(F)cc2)c2ccc(F)cc2)CC1 [Pimozide] + NC(=O)Nc1cc(-c2cccc(F)c2)sc1C(=O)N[C@H]1CCCNC1 [AZD7762] (partner 0.2 µM)
- relative viability (NCI-H1915; first compound 0.08 µM): 0.661
- relative viability (NCI-H1915; first compound 0.253 µM): 0.61
- relative viability (NCI-H1915; first compound 2.53 µM): 0.674
- relative viability (NCI-H1915; first compound 8 µM): 0.718
- relative viability (NCI-H23; first compound 0.08 µM): 0.248
- relative viability (NCI-H23; first compound 0.253 µM): 0.315
- relative viability (NCI-H23; first compound 0.8 µM): 0.195
- relative viability (NCI-H23; first compound 2.53 µM): 0.167
- relative viability (NCI-H23; first compound 8 µM): 0.213
- relative viability (EKVX; first compound 0.253 µM): 0.711
- relative viability (EKVX; first compound 0.8 µM): 0.618
- relative viability (EKVX; first compound 2.53 µM): 0.749
- relative viability (EKVX; first compound 8 µM): 0.592
- relative viability (H3255; first compound 0.253 µM): 0.858
- relative viability (H3255; first compound 0.8 µM): 0.777
- relative viability (H3255; first compound 2.53 µM): 0.838
- relative viability (H3255; first compound 8 µM): 0.879
- relative viability (LU99A; first compound 0.08 µM): 0.399
- relative viability (LU99A; first compound 0.8 µM): 0.333
- relative viability (LU99A; first compound 2.53 µM): 0.31
- relative viability (LU99A; first compound 8 µM): 0.398
- relative viability (EMC-BAC-2; first compound 0.08 µM): 1.06
- relative viability (EMC-BAC-2; first compound 0.253 µM): 1.03
- relative viability (EMC-BAC-2; first compound 0.8 µM): 1
- relative viability (EMC-BAC-2; first compound 2.53 µM): 1.09
- relative viability (EMC-BAC-2; first compound 8 µM): 1
- relative viability (NCI-H441; first compound 0.08 µM): 1.32
- relative viability (NCI-H441; first compound 0.253 µM): 0.806
- relative viability (NCI-H441; first compound 0.8 µM): 1.26
- relative viability (NCI-H441; first compound 2.53 µM): 1.09
- relative viability (NCI-H441; first compound 8 µM): 1.04
- relative viability (NCI-H1793; first compound 0.08 µM): 0.553
- relative viability (NCI-H1793; first compound 0.253 µM): 0.36
- relative viability (NCI-H1793; first compound 0.8 µM): 0.352
- relative viability (NCI-H1793; first compound 2.53 µM): 0.263
- relative viability (NCI-H1793; first compound 8 µM): 0.28
- relative viability (ChaGo-K-1; first compound 0.08 µM): 0.914
- relative viability (ChaGo-K-1; first compound 0.253 µM): 0.871
- relative viability (ChaGo-K-1; first compound 0.8 µM): 0.88
- relative viability (ChaGo-K-1; first compound 2.53 µM): 0.803
- relative viability (ChaGo-K-1; first compound 8 µM): 0.824
- relative viability (LCLC-97TM1; first compound 0.08 µM): 0.363
- relative viability (LCLC-97TM1; first compound 0.253 µM): 0.23
- relative viability (LCLC-97TM1; first compound 0.8 µM): 0.171
- relative viability (LCLC-97TM1; first compound 2.53 µM): 0.246
- relative viability (LCLC-97TM1; first compound 8 µM): 0.376
- relative viability (HCC-827; first compound 0.253 µM): 0.2
- relative viability (HCC-827; first compound 0.8 µM): 0.211
- relative viability (HCC-827; first compound 2.53 µM): 0.236
- relative viability (HCC-827; first compound 8 µM): 0.28
- relative viability (NCI-H322M; first compound 0.08 µM): 0.502
- relative viability (NCI-H322M; first compound 0.253 µM): 0.538
- relative viability (NCI-H322M; first compound 0.8 µM): 0.58
- relative viability (NCI-H322M; first compound 2.53 µM): 0.625
- relative viability (NCI-H322M; first compound 8 µM): 0.387
- relative viability (LC-2-ad; first compound 0.08 µM): 0.78
- relative viability (LC-2-ad; first compound 0.253 µM): 0.794
- relative viability (LC-2-ad; first compound 0.8 µM): 0.736
- relative viability (LC-2-ad; first compound 2.53 µM): 0.812
- relative viability (LC-2-ad; first compound 8 µM): 0.798
- relative viability (NCI-H1944; first compound 0.08 µM): 0.659
- relative viability (NCI-H1944; first compound 2.53 µM): 0.443
- relative viability (NCI-H1944; first compound 8 µM): 0.524
- relative viability (NCI-H460; first compound 0.08 µM): 0.615
- relative viability (NCI-H460; first compound 0.253 µM): 0.539
- relative viability (NCI-H460; first compound 0.8 µM): 0.625
- relative viability (NCI-H460; first compound 2.53 µM): 0.693
- relative viability (NCI-H460; first compound 8 µM): 0.549
- relative viability (HARA; first compound 0.08 µM): 0.21
- relative viability (HARA; first compound 0.253 µM): 0.48
- relative viability (HARA; first compound 0.8 µM): 0.318
- relative viability (HARA; first compound 2.53 µM): 0.197
- relative viability (HARA; first compound 8 µM): 0.37
- relative viability (NCI-H1437; first compound 0.08 µM): 1.14
- relative viability (NCI-H1437; first compound 0.253 µM): 1.09
- relative viability (NCI-H1437; first compound 0.8 µM): 1.03
- relative viability (NCI-H1437; first compound 2.53 µM): 1.05
- relative viability (NCI-H1437; first compound 8 µM): 1.09
- relative viability (HCC-15; first compound 0.08 µM): 1.36
- relative viability (HCC-15; first compound 0.253 µM): 0.545
- relative viability (HCC-15; first compound 2.53 µM): 1.2
- relative viability (HCC-15; first compound 8 µM): 1.16
- relative viability (PC-3 [JPC-3]; first compound 0.253 µM): 0.719
- relative viability (PC-3 [JPC-3]; first compound 0.8 µM): 0.72
- relative viability (PC-3 [JPC-3]; first compound 2.53 µM): 0.832
- relative viability (PC-3 [JPC-3]; first compound 8 µM): 0.751
- relative viability (NCI-H1792; first compound 0.08 µM): 0.793
- relative viability (NCI-H1792; first compound 0.253 µM): 0.733
- relative viability (NCI-H1792; first compound 0.8 µM): 0.679
- relative viability (NCI-H1792; first compound 2.53 µM): 0.748
- relative viability (NCI-H1792; first compound 8 µM): 0.5
- relative viability (NCI-H2126; first compound 0.08 µM): 1.02
- relative viability (NCI-H2126; first compound 0.253 µM): 1.06
- relative viability (NCI-H2126; first compound 0.8 µM): 1.01
- relative viability (NCI-H2126; first compound 2.53 µM): 1.02
- relative viability (NCI-H2126; first compound 8 µM): 1
